Data reported in PubChem BioAssay (NCI).
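How tested: cells in 96-well plates exposed to compound for 48 hours at five concentrations. Here, GI50 denotes the concentration required for 50% inhibition of growth. TGI marks complete inhibition of growth.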

How the values were obtained:
Assay in all cases: inhibition of tumour cell growth, NCI panel, 48 h
[1] = tested on: UO-31 renal
[2] = tested on: SNB-75 CNS
[3] = tested on: CAKI-1 renal
[4] = tested on: RXF 393 renal
[5] = tested on: SK-OV-3 ovarian
[6] = tested on: A549 NSCLC
[7] = tested on: NCI-H23 lung
[8] = tested on: SF-268 CNS
[9] = tested on: OVCAR-5 ovarian
[10] = tested on: MOLT-4 leukemia
[11] = tested on: HOP-92 NSCLC
[12] = tested on: SW-620 colon
[13] = tested on: UACC-62 melanoma
[14] = tested on: HCT-15 colon
[15] = tested on: HOP-62 NSCLC
[16] = tested on: K-562 leukemia
[17] = tested on: NCI-H460 lung
[18] = tested on: UACC-257 melanoma
[19] = tested on: MCF7 breast
[20] = tested on: MDA-MB-435
[21] = tested on: NCI-H522 lung
[22] = tested on: OVCAR-4 ovarian
[23] = tested on: HL-60(TB) leukemia
[24] = tested on: SK-MEL-28 melanoma
[25] = tested on: IGROV1 ovarian
[26] = tested on: M14 melanoma
[27] = tested on: DU-145 prostate
[28] = tested on: SN12C renal
[29] = tested on: ACHN renal
[30] = tested on: SK-MEL-5 melanoma
[31] = tested on: PC-3 prostate
[32] = tested on: HCT-116 colon
[33] = tested on: SF-539 CNS
[34] = tested on: NCI/ADR-RES ovarian
[35] = tested on: A498 renal
[36] = tested on: SNB-19 CNS
[37] = tested on: SK-MEL-2 melanoma
[38] = tested on: SR leukemia
[39] = tested on: HT29 colon
[40] = tested on: HS 578T breast
[41] = tested on: MALME-3M melanoma
[42] = tested on: 786-0 renal
[43] = tested on: LOX IMVI melanoma
[44] = tested on: EKVX NSCLC
[45] = tested on: BT-549 breast
[46] = tested on: MDA-MB-231 breast
[47] = tested on: COLO 205 colon
[48] = tested on: OVCAR-3 ovarian
[49] = tested on: T-47D breast
[50] = tested on: RPMI-8226 leukemia
[51] = tested on: KM12 colon
[52] = tested on: U251 CNS
[53] = tested on: SF-295 CNS
[54] = tested on: NCI-H226 lung
[55] = tested on: OVCAR-8 ovarian
[56] = tested on: HCC-2998 colon
[57] = tested on: TK-10 renal
[58] = tested on: CCRF-CEM leukemia

Work on `CCc1cccc(CC)c1/C=C/c1cncc(C(=O)NC)c1` yielded a GI50 [1] of 8.8 µM, a TGI [1] of over 25 µM and a GI50 [2] of 7.08 µM. It also gave a TGI [2] of over 25 µM, a GI50 [3] of 9.62 µM and a TGI [3] of over 25 µM. The GI50 [4] was 5.87 µM, the TGI [4] was 24.8 µM and the GI50 [5] was 8.75 µM. For the same molecule, the TGI [5] was over 25 µM, the GI50 [6] was 9.3 µM and the TGI [6] was over 25 µM. For the same molecule, the GI50 [7] was 15.2 µM, the TGI [7] was over 25 µM and the GI50 [8] was 15.6 µM. It also gave a TGI [8] of over 25 µM, a GI50 [9] of over 17.6 µM and a TGI [9] of over 25 µM. It also gave a GI50 [10] of 12.4 µM, a TGI [10] of over 25 µM and a GI50 [11] of 1.27 µM. The TGI [11] was over 25 µM, the GI50 [12] was 10.5 µM and the TGI [12] was over 25 µM. For the same molecule, the GI50 [13] was 10 µM, the TGI [13] was over 25 µM and the GI50 [14] was 9.71 µM. It also gave a TGI [14] of over 25 µM, a GI50 [15] of 9.88 µM and a TGI [15] of over 25 µM. For the same molecule, the GI50 [16] was 5.62 µM, the TGI [16] was over 25 µM and the GI50 [17] was 9.97 µM. It also gave a TGI [17] of over 25 µM, a GI50 [18] of over 13.5 µM and a TGI [18] of over 25 µM. For the same molecule, the GI50 [19] was 7.74 µM, the TGI [19] was over 25 µM and the GI50 [20] was 2.85 µM. The TGI [20] was 10.5 µM, the GI50 [21] was 8.82 µM and the TGI [21] was over 23.9 µM. The GI50 [22] was over 21.4 µM, the TGI [22] was over 25 µM and the GI50 [23] was over 13.6 µM. For the same molecule, the TGI [23] was over 23.8 µM, the GI50 [24] was 13.4 µM and the TGI [24] was over 25 µM. The GI50 [25] was over 21.7 µM, the TGI [25] was over 25 µM and the GI50 [26] was 6.57 µM. The TGI [26] was 18.8 µM, the GI50 [27] was 16.5 µM and the TGI [27] was over 25 µM. The GI50 [28] was 10.8 µM, the TGI [28] was over 25 µM and the GI50 [29] was 22.1 µM. It also gave a TGI [29] of over 25 µM, a GI50 [30] of 5.71 µM and a TGI [30] of over 16.2 µM. It also gave a GI50 [31] of 13.9 µM, a TGI [31] of over 25 µM and a GI50 [32] of 9.46 µM. The TGI [32] was over 25 µM, the GI50 [33] was 8.58 µM and the TGI [33] was over 25 µM. The GI50 [34] was 6.71 µM, the TGI [34] was over 25 µM and the GI50 [35] was 8.68 µM. It also gave a TGI [35] of over 22.2 µM, a GI50 [36] of 19.7 µM and a TGI [36] of over 25 µM. For the same molecule, the GI50 [37] was 10.9 µM, the TGI [37] was over 22.6 µM and the GI50 [38] was 7.24 µM. The TGI [38] was over 25 µM, the GI50 [39] was 8.79 µM and the TGI [39] was over 25 µM. The GI50 [40] was 7.65 µM, the TGI [40] was over 25 µM and the GI50 [41] was 10.9 µM. It also gave a TGI [41] of over 25 µM, a GI50 [42] of 14.2 µM and a TGI [42] of over 25 µM. The GI50 [43] was 11.5 µM, the TGI [43] was over 25 µM and the GI50 [44] was 14.2 µM. It also gave a TGI [44] of over 25 µM, a GI50 [45] of 8.95 µM and a TGI [45] of over 25 µM. For the same molecule, the GI50 [46] was 13.2 µM, the TGI [46] was over 25 µM and the GI50 [47] was 13.8 µM. The TGI [47] was over 25 µM, the GI50 [48] was 8.14 µM and the TGI [48] was over 20.2 µM. It also gave a GI50 [49] of 11.9 µM, a TGI [49] of over 25 µM and a GI50 [50] of 9.46 µM. The TGI [50] was over 25 µM, the GI50 [51] was 9.02 µM and the TGI [51] was over 25 µM. The GI50 [52] was 10.6 µM, the TGI [52] was over 25 µM and the GI50 [53] was 11.6 µM. The TGI [53] was over 25 µM, the GI50 [54] was 17.2 µM and the TGI [54] was over 25 µM. The GI50 [55] was 15.4 µM, the TGI [55] was over 25 µM and the GI50 [56] was 11.2 µM. For the same molecule, the TGI [56] was over 25 µM, the GI50 [57] was over 18.2 µM and the TGI [57] was over 25 µM. It also gave a GI50 [58] of 0.765 µM and a TGI [58] of over 25 µM.
